# Assay results as given in a melting point compilation (Tetko et al.).
row,melting point,SMILES
1,53 to 57 °C,ClCc1ncc(-c2ccc(Cl)cc2)o1
2,207 to 209 °C,O=C(O)C=Cc1cn(-c2ccccc2)nc1-c1ccccc1
3,57 to 59 °C,Cc1nc(COc2ccc(C=O)cc2)no1
4,84 to 86 °C,CC(C)(C)OC(=O)N1CCc2cc(N)ccc21
5,164 to 166 °C,CC(=O)Nc1ccc(O)c(S(=O)(=O)Cl)c1
6,139 to 141 °C,Cc1cc(Br)cc(C)c1NC(=O)CCCCl
7,56 to 58 °C,Nc1ccccc1Cn1cccn1
8,61 to 63 °C,O=Cc1nc(-c2ccccc2)cs1
9,77 to 79 °C,COCCNc1ccc(C(F)(F)F)cn1
10,148 to 150 °C,Nc1ccc(C(=O)N2CCCCC2)c(Cl)c1
11,138 to 140 °C,O=C(NC1CCNCC1)c1ccccc1
12,288 to 290 °C,O=C(O)c1c[nH]nc1-c1ccccc1F
13,89 to 91 °C,Nc1cccc(Oc2cnccn2)c1
14,161 to 163 °C,CCOC(=O)c1c[nH]cc1C(F)(F)F
15,128 to 130 °C,NNC(=O)c1ccoc1
16,90 to 92 °C,Cc1ccc(Oc2ccc(N)cn2)cc1
17,63 to 65 °C,NC(c1ccncc1)c1ccc(F)cc1 (centres undefined)
18,199 to 201 °C,O=C(O)Cc1ccc(NC(=O)c2ccc(Br)o2)cc1
19,193 to 195 °C,CNS(=O)(=O)c1ccc(-c2ccc(Cl)c(Cl)c2)c(C(=O)O)c1
20,209 to 211 °C,C=Cc1nc2sc3c(c2c(=O)[nH]1)CCCC3
21,149 to 151 °C,O=C(O)c1ccc(COCC(F)(F)F)cc1
22,197 to 199 °C,O=C(O)CC(O)c1ccc(Cl)cc1 (centres undefined)
23,182 to 184 °C,Cc1cccc(NC(=O)NCC(=O)O)c1
24,186 to 188 °C,O=Cc1c(-c2ccc(Br)s2)nc2ccccn12

row,melting point,SMILES
1,193 to 195 °C,CC(Cc1nc2ccccc2s1)(C(=O)O)c1ccccc1 (centres undefined)
2,150 to 155 °C,O=C(O)COc1ccc(N2CCCC2=O)cc1
3,69 to 71 °C,CNc1ccc(Br)cn1
4,188 to 190 °C,COCc1nc(OC)c2c(C)c(C(=O)O)sc2n1
5,214 to 216 °C,CN(C)C(=O)Nc1ccc(Cl)c(C(=O)O)c1
6,214 to 216 °C,O=C(O)c1cc(S(=O)(=O)N2CCCCC2)ccc1Cl
7,138 to 140 °C,CCOC(=O)c1cn2c(Br)ccc2cn1
8,156 to 158 °C,Cc1sc(-n2cccc2)c(C(=O)O)c1C
9,154 to 156 °C,Nc1ccc(S(=O)(=O)NC2CCC(O)CC2)cc1 (centres undefined)
10,98 to 100 °C,COc1cc(C=O)ccc1OCC(=O)N1CCOCC1
11,188 to 190 °C,Oc1cc(C2CC2)ncn1
12,229 to 231 °C,Cn1nnc2cc(C(=O)O)cnc21
13,199 to 201 °C,NC(=O)c1cnn2c(C(=O)O)ccnc12
14,100 to 102 °C,O=C(NC1CC1)C(=O)N1CCNCC1
15,74 to 76 °C,N#CC(c1ccccc1)(c1ccc(F)cc1)c1ccc(F)cc1
16,139 to 141 °C,c1ccc(Nc2nc3ccccc3s2)cc1
17,40 to 44 °C,CCCCc1ccc(N2C(=O)C=CC2=O)cc1
18,130 to 132 °C,O=C(O)CCCOc1ccc(Br)cc1
19,211 to 213 °C,CCn1c(S)nnc1-c1ccc(Cl)cc1
20,209 to 211 °C,CCc1c(C(=O)O)cnn1-c1ccc(Br)cc1
21,263 to 265 °C,NS(=O)(=O)c1ccc2c(c1)CCC(=O)N2
22,115 to 117 °C,O=C1COc2ccc(Cl)cc21
23,108 to 110 °C,Nc1cnn(CC(=O)NC2CCCC2)c1
24,232 to 234 °C,O=C(O)c1cc(N2CCOC2=O)ccc1F

row,melting point,SMILES
1,250 to 252 °C,Cn1ccnc1C(=O)c1cc(S)nc2ccccc12
2,88 to 90 °C,Cn1ccnc1SCC(=O)O
3,136 to 138 °C,Cn1cc(N2CCC(Br)C2=O)cn1 (centres undefined)
4,131 to 133 °C,CN(C1CC1)S(=O)(=O)c1ccc(N)cc1
5,150 to 152 °C,CC1(c2ccccc2)CC(=O)NC(=O)C1
6,57 to 59 °C,N#CCc1csc(-c2ccccc2)n1
7,117 to 119 °C,Cc1sc2ccccc2c1S(=O)(=O)Cl
8,226 to 228 °C,NC(=O)CNS(=O)(=O)c1ccc(Br)c(C(=O)O)c1
9,81 to 83 °C,NCC(O)c1cccs1 (centres undefined)
10,111 to 113 °C,Cc1ccc(NS(=O)(=O)c2ccc(C)c(N)c2)c(C)c1
11,157 to 159 °C,CC(=CC(=O)O)c1ccc(F)cc1F
12,66 to 68 °C,COc1ccccc1-c1cccc(N)c1
13,104 to 106 °C,O=C(O)CCSc1ccccc1Br
14,159 to 161 °C,COCc1nc(C)c(C(=O)O)s1
15,196 to 198 °C,COc1ccc(CC2(C)NC(=O)NC2=O)cc1 (centres undefined)
16,226 to 228 °C,CCOc1cc2c(c3[nH]c(C(=O)O)cc13)OC(C)C2 (centres undefined)
17,194 to 206 °C,c1ccc2c(c1)nc1n2CCN1
18,57 to 59 °C,O=S(=O)(Cl)c1cnn(Cc2ccccc2)c1
19,165 to 167 °C,CCOc1ccc(S(=O)(=O)N2CCOCC2)cc1N
20,194 to 196 °C,Cc1cnc(N)nc1
21,86 to 88 °C,O=S1(=O)CCC(CO)CC1
22,37 to 39 °C,O=S(=O)(Cl)CCOc1ccccc1
23,98 to 101 °C,CN(C1CCCCC1)S(=O)(=O)c1ccccc1N
24,175 to 177 °C,O=C(O)c1ccccc1CSc1nc2ccccc2o1

row,melting point,SMILES
1,90 to 92 °C,CCCOc1ccc(CCC(=O)O)cc1
2,149 to 151 °C,O=C1CC(NC(=O)C(F)(F)F)c2ccccc21 (centres undefined)
3,178 to 180 °C,BrC1=CC2C(C3C=CC2(Br)C32OCCO2)C12OCCO2 (centres undefined)
4,76 to 78 °C,NC(=O)C1CCCO1 (centres undefined)
5,84 to 86 °C,O=C(O)C1CCCc2ccccc21 (centres undefined)
6,215 to 217 °C,CC1(c2c(F)cccc2F)NC(=O)NC1=O (centres undefined)
7,119 to 121 °C,CC(C)(C)OC(=O)N1CCN(C(=O)C2CCCNC2)CC1 (centres undefined)
8,115 to 130 °C,COc1ccc(S(=O)(=O)N2CCCCC2)cc1NC(=O)CCl
9,135 to 137 °C,CC(C)(C)n1cnc(N)n1
10,162 to 164 °C,O=C1CC(c2ccccc2)Nc2ccccc2N1 (centres undefined)
11,180 to 182 °C,O=C(O)C1CCN(S(=O)(=O)c2ccc3ccccc3c2)CC1
12,125 to 127 °C,CC1CCCC(NC(=O)CCl)C1C (centres undefined)
13,95 to 100 °C,NNC(=O)c1ccccn1
14,162 to 164 °C,O=Cc1cnc2ccc(Br)cn12
15,149 to 151 °C,CC(=O)c1ccc(N2CCOC2=O)cc1
16,99 to 101 °C,Nc1ccc(CN2CCOC2=O)cc1
17,65 to 67 °C,Nc1ccc(CCn2cc(Br)cn2)cc1
18,109 to 111 °C,CC(=O)Nc1cc(C)c(S(=O)(=O)Cl)cc1Br
19,219 to 221 °C,O=C(O)CNc1ncnc2ccccc12
20,179 to 181 °C,O=C(O)c1coc(-c2ccccc2Cl)n1
21,107 to 109 °C,CC(C)(C)OC(=O)N1CCCC1CC(=O)O (centres undefined)
22,78 to 80 °C,OC(c1cccc(F)c1)c1ccccn1 (centres undefined)
23,223 to 225 °C,CCOC(=O)c1c(-c2ccc(OC)c(OC)c2)csc1N
24,189 to 191 °C,NCc1ccc(N2CCNC(=O)C2)cc1

row,melting point,SMILES
1,139 to 141 °C,O=C(O)c1nnc2c(C(F)(F)F)cccn12
2,141 to 143 °C,COc1ccc(-c2noc(CCC(=O)O)n2)cc1
3,151 to 153 °C,O=C(O)c1ccc(Oc2cccc(Br)c2)cc1
4,190 to 192 °C,Cc1cccc2c(=O)[nH]c(CCl)nc12
5,139 to 141 °C,O=C(O)c1ccc([N+](=O)[O-])cc1I
6,150 to 152 °C,O=C1CCc2cc(OCCCl)ccc2N1
7,110 to 112 °C,Nc1ccc(N2CCN(S(=O)(=O)C(F)F)CC2)cc1
8,251 to 253 °C,O=C1CS/C(=C/C(=O)c2ccco2)N1
9,51 to 53 °C,O=S1(=O)CCN1
10,165 to 167 °C,CNC(=O)NC1(C(=O)O)CCCC1
11,163 to 165 °C,NC(=O)NC(CC(=O)O)c1ccccc1Cl (centres undefined)
12,184 to 186 °C,Nc1nc(-c2cccc(-n3cnnn3)c2)cs1
13,128 to 130 °C,Nc1c(F)ccc(Br)c1C(=O)O
14,101 to 103 °C,Cc1cc(N)nn1-c1ccc(Cl)cc1Cl
15,117 to 119 °C,COC(=O)c1ccc(CN2C(=O)CSC2=O)cc1
16,229 to 231 °C,Cc1nccn1-c1cc(C(=O)O)c2ccccc2n1
17,279 to 281 °C,O=C(O)Cn1ccc(=O)[nH]c1=O
18,323 to 325 °C,Nc1cc2c(cc1[N+](=O)[O-])OCC(=O)N2
19,99 to 101 °C,O=C1C(Br)CCN1c1ccccc1 (centres undefined)
20,57 to 59 °C,O=[N+]([O-])c1ccc(Cl)c(Br)c1
21,124 to 126 °C,Cc1cc(-c2noc(CCC(=O)O)n2)ccc1F
22,119 to 121 °C,O=C1CS(=O)CCN1 (centres undefined)
23,176 to 178 °C,O=C(O)c1ccc(Cl)c(S(=O)(=O)N2CCOCC2)c1
24,119 to 121 °C,O=[N+]([O-])c1ccc(NCc2ccccn2)cc1

row,melting point,SMILES
1,76 to 78 °C,NCCS(=O)(=O)Cc1ccccc1
2,119 to 121 °C,O=Cc1ccc(Br)c2cccnc12
3,169 to 171 °C,O=C(O)C=Cc1cc(Br)cs1
4,273 to 275 °C,O=C(O)c1ccc(-n2cc(Br)cn2)cc1
5,49 to 51 °C,Nc1cccc2oc(C(F)(F)F)nc12
6,102 to 104 °C,CC(C)Cc1nc(C#N)c(NN)o1
7,59 to 61 °C,COC(=O)CNC(=O)CCCl
8,159 to 161 °C,Cc1oncc1C(=O)NC(C)C(=O)O (centres undefined)
9,167 to 169 °C,Cc1cc(=O)n2nc(Br)sc2n1
10,131 to 133 °C,Sc1nnc(C2CC2)o1
11,115 to 117 °C,Cc1cc(Br)c(N)cc1[N+](=O)[O-]
12,29 to 31 °C,N#Cc1c(F)cccc1OC(F)F
13,155 to 157 °C,COc1cccc(C(N)=O)c1O
14,109 to 111 °C,Cn1c(Cl)nc2ccccc2c1=O
15,45 to 47 °C,FC(F)(F)c1cc[nH]n1
16,129 to 131 °C,N#Cc1cc(N)cnc1N
17,162 to 164 °C,O=C(O)c1cnn(-c2ccc(C(F)(F)F)cn2)c1C(F)(F)F
18,319 to 321 °C,O=c1c2c([nH]c3ccc(Oc4ccccc4)cc13)CCCC2
19,79 to 81 °C,COC(=O)C1CCc2[nH]ncc2C1 (centres undefined)
20,242 to 244 °C,NS(=O)(=O)c1ccc(S)nc1
21,146 to 148 °C,O=C(O)CNS(=O)(=O)c1ccc(F)cc1
22,153 to 155 °C,COc1ccc(S(=O)(=O)Nc2cccnc2)cc1N
23,71 to 73 °C,Clc1ccc(Cn2cc(Br)cn2)cc1

row,SMILES,melting point
1,FC(F)n1ccnc1CN1CCNCC1,73 to 75 °C
